Source: ChEMBL document CHEMBL5523727, “Discovery of KT-413, a Targeted Protein Degrader of IRAK4 and IMiD Substrates Targeting MYD88 Mutant Diffuse Large B-Cell Lymphoma” (J Med Chem, 2024)

Tests used:
[1] = Metabolic stability in human liver microsomes assessed as intrinsic clearance at 1 uM measured upto 60 mins in presence of NADPH by UPLC/MS-MS analysis; format: ADME, Microsome; settings: read-out: CLH
[2] = Volume of distribution at steady state in rat at 2 mg/kg, iv by LC-MS/MS analysis; format: ADME, organism-based; settings: in vivo, read-out: Vdss
[3] = Metabolic stability in rat liver microsomes assessed as intrinsic clearance at 1 uM measured upto 60 mins in presence of NADPH by UPLC/MS-MS analysis; format: ADME, Microsome; settings: read-out: CLH
[4] = target: T1, Protein cereblon/Interleukin-1 receptor-associated kinase 4 (Homo sapiens, UniProt Q9NWZ3+Q96SW2); assay: PROTAC activity at CRBN/IRAK4 in human OCI-Ly10 cells assessed as induction of IRAK4 degradation measured after 24 hrs by MSD assay; format: cell-based
Target sequence in this assay (Q9NWZ3 whole entry): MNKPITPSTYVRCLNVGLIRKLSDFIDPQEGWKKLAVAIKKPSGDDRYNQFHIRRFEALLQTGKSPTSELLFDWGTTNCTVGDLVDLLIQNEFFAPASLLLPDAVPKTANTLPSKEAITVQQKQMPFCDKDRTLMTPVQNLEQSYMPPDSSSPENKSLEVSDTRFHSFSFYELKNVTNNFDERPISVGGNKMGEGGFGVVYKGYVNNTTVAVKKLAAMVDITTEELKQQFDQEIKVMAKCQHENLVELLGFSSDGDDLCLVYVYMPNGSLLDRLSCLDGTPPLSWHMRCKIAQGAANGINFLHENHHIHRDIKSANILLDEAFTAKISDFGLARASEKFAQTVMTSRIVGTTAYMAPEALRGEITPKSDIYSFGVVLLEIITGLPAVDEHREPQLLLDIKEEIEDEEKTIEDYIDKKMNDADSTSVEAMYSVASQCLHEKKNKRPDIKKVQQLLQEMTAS
Target sequence in this assay (Q96SW2 whole entry): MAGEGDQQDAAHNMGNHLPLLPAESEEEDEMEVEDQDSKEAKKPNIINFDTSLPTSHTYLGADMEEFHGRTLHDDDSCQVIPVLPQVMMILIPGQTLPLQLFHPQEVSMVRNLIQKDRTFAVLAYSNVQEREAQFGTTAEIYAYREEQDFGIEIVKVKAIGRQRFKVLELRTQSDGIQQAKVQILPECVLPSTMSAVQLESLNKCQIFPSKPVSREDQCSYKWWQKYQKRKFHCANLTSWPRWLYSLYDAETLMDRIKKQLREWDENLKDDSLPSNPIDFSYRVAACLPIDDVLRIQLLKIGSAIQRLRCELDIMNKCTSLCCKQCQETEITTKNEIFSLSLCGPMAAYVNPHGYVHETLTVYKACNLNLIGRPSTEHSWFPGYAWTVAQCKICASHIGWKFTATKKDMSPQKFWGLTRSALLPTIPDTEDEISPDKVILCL

OCI-Ly10 = assay: Antiproliferative activity against human OCI-Ly10 cells measured after 4 days by CellTiter-Glo Luminescent Cell Viability Assay; format: functional, cell-based; settings: Homo sapiens, OCI-Ly10, 96 h
Cereblon/Ikaros [5] = target: T2, Cereblon/Ikaros (Homo sapiens, UniProt Q96SW2+Q13422); assay: PROTAC activity at CRBN/Ikaros in human OCI-Ly10 cells assessed as induction of Ikaros degradation measured after 24 hrs by MSD assay; format: cell-based
T2 sequence (Q96SW2 whole entry): as above
T2 sequence (Q13422 whole entry): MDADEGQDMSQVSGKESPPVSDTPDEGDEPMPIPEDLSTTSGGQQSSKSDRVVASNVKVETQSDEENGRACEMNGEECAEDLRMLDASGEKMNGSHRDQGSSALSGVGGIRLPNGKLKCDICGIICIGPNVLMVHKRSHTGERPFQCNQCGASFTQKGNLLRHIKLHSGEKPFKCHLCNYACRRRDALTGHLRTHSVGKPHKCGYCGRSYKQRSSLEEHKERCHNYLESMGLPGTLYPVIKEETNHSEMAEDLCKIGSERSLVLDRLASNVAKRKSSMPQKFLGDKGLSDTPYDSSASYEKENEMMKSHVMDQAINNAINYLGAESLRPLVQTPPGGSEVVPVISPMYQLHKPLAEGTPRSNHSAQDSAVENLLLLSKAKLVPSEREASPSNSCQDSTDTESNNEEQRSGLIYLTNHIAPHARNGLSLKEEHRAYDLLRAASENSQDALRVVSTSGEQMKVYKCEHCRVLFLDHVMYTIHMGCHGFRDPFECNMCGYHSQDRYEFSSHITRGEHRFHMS

[6] = Clearance in rat at 2 mg/kg, iv by LC-MS/MS analysis; format: ADME, organism-based; settings: in vivo
[7] = Oral bioavailability in rat at 5 mg/kg by LC-MS/MS analysis; format: ADME, organism-based; settings: in vivo
[8] = Half life in rat at 2 mg/kg, iv by LC-MS/MS analysis; format: ADME, organism-based; settings: in vivo
[9] = Passive permeability of the compound in wild type MDCK cells across apical to basolateral side at 1 uM measured for 120 mins by LC-MS/MS analysis; format: ADME, cell-based, Canis lupus familiaris; settings: dog, read-out: permeability
[10] = AUC in rat at 5 mg/kg, po by LC-MS/MS analysis; format: ADME, organism-based; settings: in vivo
Protein cereblon = Protein cereblon (Homo sapiens, UniProt Q96SW2); assay: Binding affinity to CRBN (unknown origin) by HTRF assay
Chain of Protein cereblon (Q96SW2 whole entry): as the sequence (Q96SW2 whole entry) above

Cereblon/Ikaros [11] = target: T2, Cereblon/Ikaros; assay: PROTAC activity at CRBN/Ikaros in human OCI-Ly10 cells assessed as induction of Ikaros degradation measured after 6 hrs by MSD assay relative to control; format: cell-based
[12] = target: Protein cereblon/Interleukin-1 receptor-associated kinase 4 (Homo sapiens, UniProt Q96SW2+Q9NWZ3); assay: Binding affinity to CRBN/IRAK4 […] assessed as dissociation constant by DiscoverX Kd Elect assay
Chain of Protein cereblon/Interleukin-1 receptor-associated kinase 4 (Homo sapiens, UniProt Q96SW2+Q9NWZ3) (Q9NWZ3 whole entry): as the sequence (Q9NWZ3 whole entry) above
Chain of Protein cereblon/Interleukin-1 receptor-associated kinase 4 (Homo sapiens, UniProt Q96SW2+Q9NWZ3) (Q96SW2 whole entry): as the sequence (Q96SW2 whole entry) above

[13] = target: T1, Protein cereblon/Interleukin-1 receptor-associated kinase 4; assay: PROTAC activity at CRBN/IRAK4 in human OCI-Ly10 cells assessed as induction of IRAK4 degradation measured after 24 hrs by MSD assay relative to control; format: cell-based
Target sequence in this assay (Q96SW2 whole entry, looked up): as the sequence (Q96SW2 whole entry) above
Target sequence in this assay (Q9NWZ3 whole entry, looked up): as the sequence (Q9NWZ3 whole entry) above

[14] = AUC in rat at 3 mg/kg, po by LC-MS/MS analysis; format: ADME, organism-based; settings: in vivo
[15] = Oral bioavailability in rat at 3 mg/kg by LC-MS/MS analysis; format: ADME, organism-based; settings: in vivo
[16] = Half life in Non human primate plasma; format: ADME, cell-free; settings: primates
[17] = Half life in rat plasma; format: ADME, cell-free
[18] = Drug exposure in rat administered as iv bolus dose; format: ADME, organism-based; settings: in vivo
[19] = Drug exposure in Non human primate administered as iv dose; format: ADME, organism-based; settings: primates, in vivo
[20] = Half life in dog plasma; format: ADME, cell-free, Canis lupus familiaris
[21] = Half life in human plasma; format: ADME, cell-free

SMILES | microsomal CLint at 1 µM [1] | Vd [2] | microsomal CLint at 1 µM [3] | DC50 [4] | IC50 (OCI-Ly10) | DC50 (Cereblon/Ikaros [5]) | clearance [6] | half-life [8] | Papp A→B at 2 h, 1 µM [9] | IC50 (Protein cereblon) | other results
COc1cc2nc([C@H]3CC[C@H](CN4CC5(CC(CCNc6cccc7c6C(=O)N(C6CCC(=O)NC6=O)C7=O)C5)C4)CC3)sc2cc1NC(=O)c1cccc(C(F)(F)F)n1 (some centres undefined) | 1.5 µL/min/mg | 9.7 L/kg | 1 µL/min/mg | 35 nM | 72 nM | 14 nM | 4.8 mL/min/kg | 24 h | 0.18 ×10⁻⁶ cm/s |  | bioavailability [7]: 23%; AUC [10]: 2.5 µM·h
CN(CCCCc1cccc2c1C(=O)N(C1CCC(=O)NC1=O)C2=O)C[C@H]1CC[C@H](n2cc3cc(NC(=O)c4cccc(C(F)(F)F)n4)c(C(C)(C)O)cc3n2)CC1 (some centres undefined) |  |  |  | 20 nM | > 1000 nM | > 1000 nM |  |  | 1.3 ×10⁻⁶ cm/s | 91 nM | Emax (Cereblon/Ikaros [11]): 40%; Kd [12]: 0.14 nM
COc1cc2nc([C@H]3CC[C@H](CN4CC5(CC(CCNc6cccc7c6C(=O)N(C6CCC(=O)NC6=O)C7=O)C5)C4)CC3)oc2cc1NC(=O)c1cccc(C(F)(F)F)n1 (some centres undefined) | 3.9 µL/min/mg | 9.6 L/kg | 2.9 µL/min/mg | 190 nM | 53 nM | 6 nM | 9.4 mL/min/kg | 12 h | 0.34 ×10⁻⁶ cm/s |  | Emax [13]: 68%; AUC [14]: 0.5 µM·h; bioavailability [15]: 10%
CC(C)(O)c1cc2nc([C@H]3CC[C@H](CN4CC5(CC(CCNc6cccc7c6C(=O)N([C@@H]6CCC(=O)NC6=O)C7=O)C5)C4)CC3)sc2cc1NC(=O)c1cccc(C(F)(F)F)n1 |  |  |  | 19 nM |  | 9 nM |  |  |  | 110 nM | half-life [16]: 3.03 h; half-life [17]: 2.38 h; Drug uptake [18]: 48%; Drug uptake [19]: 30%; half-life [20]: 3.07 h; half-life [21]: 2.92 h
